This is an account of results in patent US8507536B2, “Gonadotropin-releasing hormone receptor antagonists and methods relating thereto” (Neurocrine Biosciences, Inc., priority 2007, dated 2013).

The target of this assay is T1, human GnRH receptor (Homo sapiens, UniProt P30968).
T1 construct: expressed in transfected cells; membrane preparations
T1 sequence (P30968 1-328): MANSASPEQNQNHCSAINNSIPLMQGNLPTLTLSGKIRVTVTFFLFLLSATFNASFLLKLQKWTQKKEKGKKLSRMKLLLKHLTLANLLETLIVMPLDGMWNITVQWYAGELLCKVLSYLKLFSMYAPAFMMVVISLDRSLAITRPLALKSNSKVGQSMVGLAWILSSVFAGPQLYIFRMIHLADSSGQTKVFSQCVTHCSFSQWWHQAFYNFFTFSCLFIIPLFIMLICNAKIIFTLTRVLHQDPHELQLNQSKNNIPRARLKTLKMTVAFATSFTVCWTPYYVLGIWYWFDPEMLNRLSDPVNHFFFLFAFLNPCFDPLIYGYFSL
The assay is described as follows: peptide competitive human receptor binding assays (radioligand displacement). To be noted: tested in one or more of the peptide competitive human receptor binding assays. As to the method: HEK293 cells stably transfected with the human GnRH receptor are grown for two days after achieving confluence then are harvested by striking tissue culture flasks against a firm surface. Cells are collected by centrifugation at 1000 g for […]. Cell pellets are resuspended in 5% sucrose and homogenized using a polytron homogenizer for two 15 second homogenization steps. Cell homogenates are then centrifuged for 5 minutes at 3000 g to remove nuclei and the supernatant subsequently centrifuged for 30 minutes at 44,000 g to collect the membrane fraction. The membrane pellet is resuspended in GnRH binding buffer (10 mM HEPES, pH 7.5, 150 mM NaCl and 0.1% BSA) and aliquots immediately snap-frozen in liquid nitrogen and stored at −80° C. Protein content of the membrane suspension is determined using the Bio-Rad protein assay kit (Bio-Rad).
RBL cells stably transfected with the human GnRH receptor are grown to 80% confluency prior to harvesting. The cells are incubated at 37° C. for 10 min in 0.5 mM EDTA/PBS (Ca^++, Mg^++ free), and are dislodged from the plate by gentle rapping of the flasks. Cells are collected and pelleted by centrifugation at 1000 g for 5 minutes. Cell pellets are resuspended in buffer (DPBS supplemented with 10 mM MgCl2, 2 mM EGTA, pH=7.4), and cell lysis is performed using a pressure cell and applying N2 at a pressure of 900 psi for 30 min at 4° C. Unbroken cells and larger debris were removed by centrifugation at 1200 g for 10 min at 4° C. The cell membrane supernatant is then centrifuged at 45,000 g and the resulting membrane pellet is resuspended in assay buffer and homogenized on ice using a tissue homogenizer. Protein concentrations are determined using the Coomassie Plus Protein Reagent kit. Membranes are aliquoted and stored at −80° C. until ready for use.
Radioligand binding displacement assays using the peptide radioligands are performed in buffer containing 10 mM HEPES, 150 mM NaCl and 0.1% BSA, pH=7.5. Radioligand binding assays employing the use of [^3H]-1-(2,6-difluorobenzyl)-3-[(2R)-amino-2-phenethyl]-5-(2-fluoro-3-methoxyphenyl)-6-methyluracil (here the 3-methoxy group is tritiated) are run in buffer containing 50 mM Tris, 150 mM NaCl, 5 mM MgCl2, 0.01% saponin and 0.5 mM EDTA, pH=7.5. Radioligand displacement assays are performed by incubating radioligand ([^125I-Tyr^5, DLeu^6, NMeLeu^7, Pro^9-NEt]GnRH (0.1 nM), [His^5, ^125I-DTyr^6]GnRH (0.2 nM) (31) or [^3H]-1-(2,6-difluorobenzyl)-3-[(2R)-amino-2-phenethyl]-5-(2-fluoro-3-methoxyphenyl)-6-methyluracil (1 nM)), unlabeled competitors at concentrations ranging from 0.3 pM to 10 μM, and membranes for 2 hrs at rt. 10 to 20 μg protein/well is used from membrane preparations for human, monkey and rabbit GnRH receptor. 5 μg/well and 60 μg/well of membranes are used for rat and dog GnRH receptors, respectively. Binding assays are performed in either Millipore 96-well GF/C filtration plates (for ([^125I-Tyr^5, DLeu^6, NMeLeu^7, Pro^9-NEt]GnRH assays), or in 96 well low binding plates, which are subsequently filtered onto GF/C Unifilters. Filters are pretreated with 0.5% PEI for 30 min prior to use. Reactions are terminated by rapid vacuum filtration, and the filters are washed twice with 250 μL ice cold PBS pH=7.4 (0.01% Tween-20 is included in wash media for [His^5, ^125I-DTyr^6]GnRH and [^3H]-1-(2,6-difluorobenzyl)-3-[(2R)-amino-2-phenethyl]-5-(2-fluoro-3-methoxyphenyl)-6-methyluracil radioligands). The filters are dried, and the Millipore filters are monitored for radioactivity using a Cobra II gamma counter (Perkin Elmer Life Sciences). For assays filtered onto the GF/C Unifilter plates, 50 μL scintillation fluid is added to each filter, and radioactivity is monitored using a TopCount NXT. For iodinated radioligands, total radioligand is monitored on a gamma counter, and for the tritiated radioligand, total radioligand is monitored using a Perkin Elmer 1600TR liquid scintillation counter. […]
Background: Displacement assays read how much labelled ligand stays bound in the presence of the test substance.
A word on the Ki: it is a measure of affinity in units of concentration, obtained from inhibition or displacement. High values mean weaker binding, low ones tighter binding. The compound `COc1cc(Cl)c(-c2cnc(C(F)(F)F)cc2C#N)cc1S(=O)(=O)N(C)c1ccc(Cl)cc1` [Example 15-10] came in with a Ki not above 100 nM.

`COc1cc(Cl)c(-c2cnc(C(F)(F)F)cc2C#N)cc1S(=O)(=O)N(C)c1cccc(F)c1` [Example 15-11] showed a Ki not above 100 nM.

For `COc1cc(Cl)c(-c2cnc(C(F)(F)F)cc2C#N)cc1S(=O)(=O)N(C)c1ccccc1F` [Example 15-12], the Ki is not above 100 nM.

For the compound `COc1cccc(N(C)S(=O)(=O)c2cc(-c3cnc(C(F)(F)F)cc3C#N)c(Cl)cc2OC)c1` [Example 15-14], the Ki was not above 100 nM.

`COc1cc(Cl)c(-c2cnc(C(F)(F)F)cc2C#N)cc1S(=O)(=O)N(C)c1c(C)cccc1OC` [Example 15-15] showed a Ki not above 100 nM.

`COc1ccccc1N(C)S(=O)(=O)c1cc(-c2cnc(C(F)(F)F)cc2C#N)c(Cl)cc1OC` [Example 15-16] showed a Ki not above 100 nM.

Compound `COc1cc(Cl)c(-c2cnc(C(F)(F)F)cc2C#N)cc1S(=O)(=O)N1CCCCc2ccccc21` [Example 15-17] gave a Ki not above 100 nM.

In the case of `COc1cc(Cl)c(-c2cnc(C(F)(F)F)cc2C#N)cc1S(=O)(=O)N(C)c1ccccn1` [Example 15-18], the Ki is not above 100 nM.

Compound `COc1cc(Cl)c(-c2cnc(C(F)(F)F)cc2C#N)cc1S(=O)(=O)N(C)c1ncccc1C` [Example 15-19] yielded a Ki not above 100 nM.

As to `COc1cccc(N(C)S(=O)(=O)c2cc(-c3cnc(C(F)(F)F)cc3C#N)c(Cl)cc2OC)n1` [Example 15-20], the Ki was not above 100 nM.

Take `COc1cc(Cl)c(-c2cnc(C(F)(F)F)cc2C#N)cc1S(=O)(=O)N(C)CC(C)C` [Example 15-21]: the Ki is not above 100 nM.

`CCOC(=O)CN(C)S(=O)(=O)c1cc(-c2cnc(C(F)(F)F)cc2C#N)c(Cl)cc1OC` [Example 15-26]: the Ki is not above 100 nM.

As to `CCCCNS(=O)(=O)c1cc(-c2cnc(C(F)(F)F)cc2C#N)c(Cl)cc1OC` [Example 15-28], the Ki is not above 100 nM.

`COc1ccccc1CN(C)S(=O)(=O)c1cc(-c2cnc(C(F)(F)F)cc2C#N)c(Cl)cc1OC` [Example 15-29] returned an inhibition constant Ki not above 100 nM.

The compound `COc1cc(Cl)c(-c2cnc(C(F)(F)F)cc2C#N)cc1S(=O)(=O)N(C)CC(C)(C)C` [Example 15-30] came in with an inhibitory constant (Ki) not above 100 nM.

`COc1cccc(CN(C)S(=O)(=O)c2cc(-c3cnc(C(F)(F)F)cc3C#N)c(Cl)cc2OC)c1` [Example 15-32] had a Ki not above 100 nM.

Turning to `COc1cc(Cl)c(-c2cnc(C(F)(F)F)cc2C#N)cc1S(=O)(=O)N(C)Cc1ccc(F)cc1` [Example 15-33], the Ki is not above 100 nM.

In turn, `COc1cc(Cl)c(-c2cnc(C(F)(F)F)cc2C#N)cc1S(=O)(=O)N(C)Cc1cccc(F)c1` [Example 15-34] gave a Ki not above 100 nM.

In the case of `COc1cc(Cl)c(-c2cnc(C(F)(F)F)cc2C#N)cc1S(=O)(=O)N(C)Cc1ccccc1F` [Example 15-35], the Ki is not above 100 nM.

In turn, `COc1cc(Cl)c(-c2cnc(C(F)(F)F)cc2C#N)cc1S(=O)(=O)N(C)Cc1cccc(C)n1` [Example 15-38] had a Ki not above 100 nM.

With `COc1cc(Cl)c(-c2cnc(C(F)(F)F)cc2C#N)cc1S(=O)(=O)N(C)Cc1ccco1` [Example 15-39], the Ki was not above 100 nM.

The compound `COc1cc(Cl)c(-c2cnc(C(F)(F)F)cc2C#N)cc1S(=O)(=O)N(C)[C@H](C)c1ccccc1` [Example 15-43] yielded an inhibitory constant (Ki) not above 100 nM.

The compound `COc1cc(Cl)c(-c2cnc(C(F)(F)F)cc2C#N)cc1S(=O)(=O)N(C)[C@@H](C)c1ccccc1` [Example 15-44] came in with a Ki not above 100 nM.

The compound `COC(=O)Cc1cc(Cl)c(-c2cnc(C(F)(F)F)cc2C#N)cc1S(=O)(=O)N1CCC(C)(C)c2ccccc21` [Example 16-1, [5-Chloro-4-(4-cyano-6-trifluoromethyl-pyridin-3-yl)-2-(4,4-dimethyl-3,4-dihydro-2H-quinoline-1-sulfonyl)-phenyl]-acetic acid methyl ester] yielded a Ki not above 100 nM.

Take `CC1(C)CCN(S(=O)(=O)c2cc(-c3cnc(C(F)(F)F)cc3C#N)c(Cl)cc2CC(=O)O)c2ccccc21` [Example 17-1, [5-Chloro-4-(4-cyano-6-trifluoromethyl-pyridin-3-yl)-2-(4,4-dimethyl-3,4-dihydro-2H-quinoline-1-sulfonyl)-phenyl]-acetic acid]: the Ki is not above 100 nM.

`CN(c1ccccn1)S(=O)(=O)c1cc(-c2cnc(C(F)(F)F)cc2C#N)c(Cl)cc1OCCCC(=O)O` [Example 18-1, 4-[5-chloro-4-(4-cyano-6-trifluoromethyl-pyridin-3-yl)-2-(methyl-pyridin-2-yl-sulfamoyl)-phenoxy]-butyric acid] came in with a Ki not above 100 nM.

As for `CN(c1ccccn1)S(=O)(=O)c1cc(-c2cnc(C(F)(F)F)cc2C#N)c(Cl)cc1OCCC(=O)O` [Example 18-2, 3-[5-chloro-4-(4-cyano-6-trifluoromethyl-pyridin-3-yl)-2-(methyl-pyridin-2-yl-sulfamoyl)-phenoxy]-propionic acid], the Ki was not above 100 nM.

`CN(c1ccccn1)S(=O)(=O)c1cc(-c2cnc(C(F)(F)F)cc2C#N)c(Cl)cc1OCC(=O)O` [Example 18-3, [5-chloro-4-(4-cyano-6-trifluoromethyl-pyridin-3-yl)-2-(methyl-pyridin-2-yl-sulfamoyl)-phenoxy]-acetic acid] yielded a Ki not above 100 nM.

In the case of `CN(c1ccccc1)S(=O)(=O)c1cc(-c2cnc(C(F)(F)F)cc2C#N)c(Cl)cc1OCC(=O)O` [Example 19-1, [5-chloro-4-(4-cyano-6-trifluoromethyl-pyridin-3-yl)-2-(methyl-phenyl-sulfamoyl)-phenoxy]-acetic acid], the Ki is not above 100 nM.
